Data on 19 molecules can be found in patent US11306084B2, “Integrin antagonists” (Saint Louis University, priority 2016, dated 2022).

Common to all, as to format: binding
The target of assay [1] is T1, Recombinant human integrin ανβ6 (Homo sapiens, UniProt P06756+P18564).
T1 construct: purchased R&D Systems 3817-AV
The experiment in a line: Solid Phase Receptor Assay (SPRA) for ανβ6 function. Particulars: for IC50: plate-bound human LAP, read-out: αvβ6 SPRA IC50.

In assay [2] the target is T2, Recombinant human integrin ανβ3 (Homo sapiens, UniProt P05106+P06756).
T2 construct: purchased R&D Systems 3050-AV
In words: Solid Phase Receptor Assay (SPRA) for ανβ3 function. Particulars: for IC50: plate-bound human vitronectin, read-out: αvβ3 SPRA IC50.

Assay [3] addresses T3, Recombinant human integrin α5β1 (Homo sapiens, UniProt P05556+P08648).
T3 construct: purchased R&D Systems 3230-A5
The experiment in a line: Solid Phase Receptor Assay (SPRA) for α5β1 function. Particulars: for IC50: plate-bound human fibronectin.

Assay [4] deals with T4, Recombinant human integrin ανβ1 (Homo sapiens, UniProt P05556+P06756).
T4 construct: purchased R&D Systems 6579-AV
The experiment in a line: Solid Phase Receptor Assay (SPRA) for ανβ1 function. Particulars: for IC50: plate-bound human fibronectin, read-out: αvβ1 SPRA IC50.

As usually defined, the IC50 is the concentration that gives 50% inhibition.

Counter-ions that a name gives are not always drawn.

T2 sequence (P06756 31-992 limits assumed): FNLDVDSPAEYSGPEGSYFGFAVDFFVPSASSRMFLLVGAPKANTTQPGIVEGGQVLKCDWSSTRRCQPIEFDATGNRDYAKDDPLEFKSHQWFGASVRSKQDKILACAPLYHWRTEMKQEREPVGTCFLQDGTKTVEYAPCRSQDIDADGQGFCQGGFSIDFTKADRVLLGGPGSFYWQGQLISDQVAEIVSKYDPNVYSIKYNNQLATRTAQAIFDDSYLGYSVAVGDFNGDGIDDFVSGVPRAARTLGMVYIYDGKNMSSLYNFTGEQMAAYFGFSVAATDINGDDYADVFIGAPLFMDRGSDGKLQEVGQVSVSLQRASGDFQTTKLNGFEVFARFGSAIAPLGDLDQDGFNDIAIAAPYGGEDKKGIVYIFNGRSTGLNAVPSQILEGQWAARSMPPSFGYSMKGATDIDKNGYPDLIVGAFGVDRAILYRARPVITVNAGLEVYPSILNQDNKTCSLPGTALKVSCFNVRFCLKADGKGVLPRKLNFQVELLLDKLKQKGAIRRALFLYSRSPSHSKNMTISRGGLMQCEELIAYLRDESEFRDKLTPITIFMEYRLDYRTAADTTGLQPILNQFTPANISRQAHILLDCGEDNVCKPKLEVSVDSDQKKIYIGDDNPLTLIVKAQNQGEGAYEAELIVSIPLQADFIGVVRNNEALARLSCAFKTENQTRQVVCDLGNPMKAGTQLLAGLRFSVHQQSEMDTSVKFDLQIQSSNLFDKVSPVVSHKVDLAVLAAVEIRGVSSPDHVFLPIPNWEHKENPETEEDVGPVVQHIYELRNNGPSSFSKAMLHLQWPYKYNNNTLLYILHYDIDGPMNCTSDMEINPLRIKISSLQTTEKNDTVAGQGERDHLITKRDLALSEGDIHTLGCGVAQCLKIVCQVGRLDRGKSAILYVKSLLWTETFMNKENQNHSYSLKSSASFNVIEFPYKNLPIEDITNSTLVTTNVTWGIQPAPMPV
T2 sequence (P05106 27-718 limits assumed): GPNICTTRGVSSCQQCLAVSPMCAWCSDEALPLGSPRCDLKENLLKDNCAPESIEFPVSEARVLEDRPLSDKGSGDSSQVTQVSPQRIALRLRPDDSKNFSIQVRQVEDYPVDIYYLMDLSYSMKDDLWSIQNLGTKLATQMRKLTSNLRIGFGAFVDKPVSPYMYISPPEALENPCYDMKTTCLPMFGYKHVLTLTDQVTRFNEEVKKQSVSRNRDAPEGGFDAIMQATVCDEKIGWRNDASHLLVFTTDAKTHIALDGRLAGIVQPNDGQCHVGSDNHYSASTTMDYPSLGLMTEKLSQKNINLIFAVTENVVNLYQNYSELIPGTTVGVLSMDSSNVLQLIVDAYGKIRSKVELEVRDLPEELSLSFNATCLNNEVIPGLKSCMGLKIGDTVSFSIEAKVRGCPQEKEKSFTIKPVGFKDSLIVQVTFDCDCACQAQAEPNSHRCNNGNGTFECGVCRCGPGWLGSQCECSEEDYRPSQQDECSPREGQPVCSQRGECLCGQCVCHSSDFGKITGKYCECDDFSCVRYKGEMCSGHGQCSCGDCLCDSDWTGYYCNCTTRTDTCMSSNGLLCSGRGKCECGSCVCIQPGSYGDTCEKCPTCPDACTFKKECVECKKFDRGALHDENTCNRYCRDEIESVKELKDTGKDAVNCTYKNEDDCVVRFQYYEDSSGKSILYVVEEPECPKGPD
T1 sequence (P06756 31-992 limits assumed): as the sequence (P06756 31-992 limits assumed) above
T1 sequence (P18564 22-707 limits assumed): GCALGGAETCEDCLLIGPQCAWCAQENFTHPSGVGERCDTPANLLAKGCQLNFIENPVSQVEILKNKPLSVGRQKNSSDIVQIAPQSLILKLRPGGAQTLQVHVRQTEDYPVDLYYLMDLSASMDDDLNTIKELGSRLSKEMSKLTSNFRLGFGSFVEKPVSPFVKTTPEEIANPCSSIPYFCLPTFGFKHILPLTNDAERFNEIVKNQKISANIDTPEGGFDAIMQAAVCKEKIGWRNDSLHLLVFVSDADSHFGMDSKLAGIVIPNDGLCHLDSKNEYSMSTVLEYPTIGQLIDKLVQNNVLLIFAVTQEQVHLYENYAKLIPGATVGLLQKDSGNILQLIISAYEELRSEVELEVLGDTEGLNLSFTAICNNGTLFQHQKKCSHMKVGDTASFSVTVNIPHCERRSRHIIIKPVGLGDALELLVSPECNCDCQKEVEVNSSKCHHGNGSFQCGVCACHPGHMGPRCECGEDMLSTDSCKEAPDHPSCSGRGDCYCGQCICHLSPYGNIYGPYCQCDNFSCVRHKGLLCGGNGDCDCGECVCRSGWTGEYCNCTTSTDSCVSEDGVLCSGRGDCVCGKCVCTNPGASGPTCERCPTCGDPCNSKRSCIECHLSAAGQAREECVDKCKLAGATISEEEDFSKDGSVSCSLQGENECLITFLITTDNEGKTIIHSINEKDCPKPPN
T4 sequence (P06756 31-992 limits assumed): as the sequence (P06756 31-992 limits assumed) above
T4 sequence (P05556 21-728 limits assumed): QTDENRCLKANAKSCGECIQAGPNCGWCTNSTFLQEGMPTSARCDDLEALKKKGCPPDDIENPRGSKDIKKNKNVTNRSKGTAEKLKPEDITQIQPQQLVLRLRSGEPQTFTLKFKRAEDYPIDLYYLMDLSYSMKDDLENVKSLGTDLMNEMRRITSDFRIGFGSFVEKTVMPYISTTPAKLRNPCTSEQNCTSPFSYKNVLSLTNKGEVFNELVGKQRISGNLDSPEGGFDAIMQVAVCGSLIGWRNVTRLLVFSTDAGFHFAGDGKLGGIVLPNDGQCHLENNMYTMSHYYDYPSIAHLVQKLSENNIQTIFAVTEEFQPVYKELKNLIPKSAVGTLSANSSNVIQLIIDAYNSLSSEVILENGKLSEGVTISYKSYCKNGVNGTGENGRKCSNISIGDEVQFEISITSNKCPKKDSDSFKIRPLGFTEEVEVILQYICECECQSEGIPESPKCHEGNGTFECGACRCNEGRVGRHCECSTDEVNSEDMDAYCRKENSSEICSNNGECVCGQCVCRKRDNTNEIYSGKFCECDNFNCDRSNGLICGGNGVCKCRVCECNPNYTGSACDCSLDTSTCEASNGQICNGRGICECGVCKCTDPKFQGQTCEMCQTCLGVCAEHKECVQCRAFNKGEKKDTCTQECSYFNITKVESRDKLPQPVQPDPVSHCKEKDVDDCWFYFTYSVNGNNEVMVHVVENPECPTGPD
T3 sequence (P08648 42-995 limits assumed): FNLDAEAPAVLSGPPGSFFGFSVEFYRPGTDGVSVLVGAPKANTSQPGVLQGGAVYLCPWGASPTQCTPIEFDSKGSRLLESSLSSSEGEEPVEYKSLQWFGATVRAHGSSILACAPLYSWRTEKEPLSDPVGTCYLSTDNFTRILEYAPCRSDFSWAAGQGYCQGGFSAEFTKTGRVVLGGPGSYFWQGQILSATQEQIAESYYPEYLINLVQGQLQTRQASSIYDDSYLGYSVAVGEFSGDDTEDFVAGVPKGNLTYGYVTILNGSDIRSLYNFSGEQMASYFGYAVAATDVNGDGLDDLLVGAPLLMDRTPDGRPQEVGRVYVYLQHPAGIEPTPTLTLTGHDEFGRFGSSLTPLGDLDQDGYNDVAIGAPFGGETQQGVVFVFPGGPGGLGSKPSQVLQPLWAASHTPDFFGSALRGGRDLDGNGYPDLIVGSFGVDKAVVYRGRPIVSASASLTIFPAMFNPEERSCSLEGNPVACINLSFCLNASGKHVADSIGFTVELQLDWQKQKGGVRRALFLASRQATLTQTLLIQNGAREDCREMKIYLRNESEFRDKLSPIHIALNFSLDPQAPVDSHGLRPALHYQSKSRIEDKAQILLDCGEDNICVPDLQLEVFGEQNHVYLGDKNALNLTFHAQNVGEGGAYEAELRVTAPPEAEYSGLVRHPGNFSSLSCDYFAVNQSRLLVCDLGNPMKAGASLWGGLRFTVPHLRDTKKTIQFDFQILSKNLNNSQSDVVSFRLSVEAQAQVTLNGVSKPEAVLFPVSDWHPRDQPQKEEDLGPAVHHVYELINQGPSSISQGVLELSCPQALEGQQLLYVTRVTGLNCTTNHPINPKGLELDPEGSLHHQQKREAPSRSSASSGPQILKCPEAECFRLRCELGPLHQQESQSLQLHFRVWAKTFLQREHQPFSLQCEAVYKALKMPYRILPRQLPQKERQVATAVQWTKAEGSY
T3 sequence (P05556 21-728 limits assumed): as the sequence (P05556 21-728 limits assumed) above

As to `Cn1nc(CC(CC(=O)O)c2cc(C#N)cc(C(C)(C)C(F)(F)F)c2)cc1OCCc1ccc2c(n1)NCCC2` (centres unmarked) [Example 28, 3-[3-cyano-5-(2,2,2-trifluoro-1,1-dimethyl-ethyl)phenyl]-4-[1-methyl-5-[2-(5,6,7,8-tetrahydro-1,8-naphthyridin-2-yl)ethoxyl]pyrazol-3-yl]butanoic Acid Trifluoroacetate], the IC50 in assay [1] came to 15 nM; in assay [2], 10 nM; in assay [3] it was 8.5 nM; in assay [4], 3.9 nM.

In the case of `COCC1(c2cc(Cl)cc(C(CC(=O)O)Cc3cc(OCCc4ccc5c(n4)NCCC5)n(C)n3)c2)CCOCC1` (centres unmarked) [Example 29, 3-(3-chloro-5-(4-(methoxymethyl)tetrahydro-2H-pyran-4-yl)phenyl)-4-(1-methyl-5-(2-(5,6,7,8-tetrahydro-1,8-naphthyridin-2-yl)ethoxy)-1H-pyrazol-3-yl)butanoic Acid], the IC50 in assay [1] is 52 nM; in assay [2] it was 5.3 nM; in assay [3] it was 5.1 nM; in assay [4], 9.4 nM.

Take `COCC1(c2cc(F)cc(C(CC(=O)O)Cc3cc(OCCc4ccc5c(n4)NCCC5)n(C)n3)c2)CCOCC1` (centres unmarked) [Example 30, 3-(3-fluoro-5-(4-(methoxymethyl)tetrahydro-2H-pyran-4-yl)phenyl)-4-(1-methyl-5-(2-(5,6,7,8-tetrahydro-1,8-naphthyridin-2-yl)ethoxy)-1H-pyrazol-3-yl)butanoic Acid]: the IC50 in assay [1] came to 180 nM; in assay [2] it was 8.1 nM; in assay [3], 12 nM; in assay [4], 6.6 nM.

In the case of `COCC1(c2cc(C(CC(=O)O)Cc3cc(OCCc4ccc5c(n4)NCCC5)n(C)n3)cc(C(F)(F)F)c2)CCOCC1` (centres unmarked) [Example 31, 3-(3-(4-(methoxymethyl)tetrahydro-2H-pyran-4-yl)-5-(trifluoromethyl)phenyl)-4-(1-methyl-5-(2-(5,6,7,8-tetrahydro-1,8-naphthyridin-2-yl)ethoxy)-1H-pyrazol-3-yl)butanoic Acid], the IC50 is 63 nM in assay [1], 6.5 nM in assay [2], 12 nM in assay [3] and 1.4 nM in assay [4].

With `COc1ccc(C(C)(C)C)cc1C(CC(=O)O)Cc1cc(OCCc2ccc3c(n2)NCCC3)n(C)n1` (centres unmarked) [Example 32, 3-(5-(tert-butyl)-2-methoxyphenyl)-4-(1-methyl-5-(2-(5,6,7,8-tetrahydro-1,8-naphthyridin-2-yl)ethoxy)-1H-pyrazol-3-yl)butanoic Acid], in assay [1], the “inhibitory activity at ανβ6 (in words)” value is reported as “low activity” and the IC50 stood at 230 nM. Besides, in assay [2], the “inhibitory activity at ανβ3 (in words)” value was “low activity” and the IC50 was 380 nM. Further, in assay [3], the “inhibitory activity at α5β1 (in words)” value is listed as “high inhibitory activity” and the IC50 was determined as 33 nM. For the same molecule, in assay [4], the “inhibitory activity at ανβ1 (in words)” value is reported as “high inhibitory activity” and the IC50 was determined as 0.9 nM.

As for `COc1c(C(CC(=O)O)Cc2cc(OCCc3ccc4c(n3)NCCC4)n(C)n2)cccc1C(C)(C)C` (centres unmarked) [Example 33, 3-(3-(tert-butyl)-2-methoxyphenyl)-4-(1-methyl-5-(2-(5,6,7,8-tetrahydro-1,8-naphthyridin-2-yl)ethoxy)-1H-pyrazol-3-yl)butanoic Acid], the IC50 turned out to be 2400 nM in assay [1], 150 nM in assay [2], 3900 nM in assay [3] and 2400 nM in assay [4].

Regarding `COc1cc(C(C)(C)C)ccc1C(CC(=O)O)Cc1cc(OCCc2ccc3c(n2)NCCC3)n(C)n1` (centres unmarked) [Example 34, 3-(4-(tert-butyl)-2-methoxyphenyl)-4-(1-methyl-5-(2-(5,6,7,8-tetrahydro-1,8-naphthyridin-2-yl)ethoxy)-1H-pyrazol-3-yl)butanoic Acid], the 50% inhibitory concentration (IC50) in assay [1] came to 130 nM; in assay [2], 4.6 nM; in assay [3], 550 nM; in assay [4], 47 nM.

On to `Cn1nc(CC(CC(=O)O)c2cc(OC(F)(F)F)cc(C(C)(C)C)c2)cc1OCCc1ccc2c(n1)NCCC2` (centres unmarked) [Example 36, 3-[3-tert-butyl-5-(trifluoromethoxy)phenyl]-4-[1-methyl-5-[2-(5,6,7,8-tetrahydro-1,8-naphthyridin-2-yl)ethoxy]pyrazol-3-yl]butanoic Acid], for which the IC50 stood at 120 nM in assay [1], 10 nM in assay [2], 7.1 nM in assay [3] and 6.5 nM in assay [4].

As for `Cn1nc(CC(CC(=O)O)c2cc(C(C)(C)C)cc(C(F)(F)F)c2)cc1OCCc1ccc2c(n1)NCCC2` (centres unmarked) [Example 37, 3-[3-tert-butyl-5-(trifluoromethyl)phenyl]-4-[1-methyl-5-[2-(5,6,7,8-tetrahydro-1,8-naphthyridin-2-yl)ethoxyl]pyrazol-3-yl]butanoic Acid], the half-inhibitory concentration (IC50) in assay [1] is 140 nM; in assay [2], 7.3 nM; in assay [3], 7.9 nM; in assay [4], 7.5 nM.

As for `Cn1nc(CC(CC(=O)O)c2cc(F)cc(C(C)(C)C)c2)cc1OCCc1ccc2c(n1)NCCC2` (centres unmarked) [Example 38, 3-(3-(tert-butyl)-5-fluorophenyl)-4-(1-methyl-5-(2-(5,6,7,8-tetrahydro-1,8-naphthyridin-2-yl)ethoxy)-1H-pyrazol-3-yl)butanoic Acid], the IC50 in assay [1] stood at 110 nM; in assay [2], 7.9 nM; in assay [3], 23 nM; in assay [4], 4.5 nM.

Consider `COc1ccc(C(C)C)cc1C(CC(=O)O)Cc1cc(OCCc2ccc3c(n2)NCCC3)n(C)n1` (centres unmarked) [Example 39, 3-(5-isopropyl-2-methoxyphenyl)-4-(1-methyl-5-(2-(5,6,7,8-tetrahydro-1,8-naphthyridin-2-yl)ethoxy)-1H-pyrazol-3-yl)butanoic Acid Trifluoroacetate], for which the IC50 in assay [1] came to 230 nM; in assay [2], 290 nM; in assay [3], 31 nM; in assay [4], 3.2 nM.

Turning to `CC(C)c1cc(Br)cc(C(CC(=O)O)Cc2cc(OCCc3ccc4c(n3)NCCC4)n(C)n2)c1` (centres unmarked) [Example 40, 3-(3-bromo-5-isopropyl-phenyl)-4-[1-methyl-5-[2-(5,6,7,8-tetrahydro-1,8-naphthyridin-2-yl)ethoxyl]pyrazol-3-yl]butanoic acid trifluoroacetate], the IC50 in assay [1] is 79 nM; in assay [2] it was 7.2 nM; in assay [3] it was 21 nM; in assay [4] it was 6.3 nM.

`CC(C)(C)c1cc(Br)cc(C(CC(=O)O)Cc2cc(OCCc3ccc4c(n3)NCCC4)n(CC(F)(F)F)n2)c1` (centres unmarked) [Example 41, 3-(3-bromo-5-tert-butyl-phenyl)-4-[5-[2-(5,6,7,8-tetrahydro-1,8-naphthyridin-2-yl)ethoxy]-1-(2,2,2-trifluoroethyl)pyrazol-3-yl]butanoic Acid Trifluoroacetate]: the IC50 in assay [1] was determined as 85 nM; in assay [2], 9 nM; in assay [3] it was 6.5 nM; in assay [4] it was 4.5 nM.

For `Cn1nc(CC(CC(=O)O)c2cc(C(C)(C)C)ccc2O)cc1OCCc1ccc2c(n1)NCCC2` (centres unmarked) [Example 42, 3-(5-tert-butyl-2-hydroxy-phenyl)-4-[1-methyl-5-[2-(5,6,7,8-tetrahydro-1,8-naphthyridin-2-yl)ethoxyl]pyrazol-3-yl]butanoic Acid Sodium Salt], the IC50 in assay [1] stood at 20 nM; in assay [2], 18 nM; in assay [3] it was 2.1 nM; in assay [4], 2.4 nM.

For the molecule `Cn1nc(CC(CC(=O)O)c2cc(C(C)(C)C)ccc2Cl)cc1OCCc1ccc2c(n1)NCCC2` (centres unmarked) [Example 43, 3-(5-(tert-butyl)-2-chlorophenyl)-4-(1-methyl-5-(2-(5,6,7,8-tetrahydro-1,8-naphthyridin-2-yl)ethoxy)-1H-pyrazol-3-yl)butanoic Acid Trifluoroacetate], the IC50 in assay [1] was determined as 800 nM; in assay [2], 94.4 nM; in assay [3], 77 nM; in assay [4], 7.3 nM.

`Cc1ccc(C(C)(C)C)cc1C(CC(=O)O)Cc1cc(OCCc2ccc3c(n2)NCCC3)n(C)n1` (centres unmarked) [Example 44, 3-(5-tert-butyl-2-methyl-phenyl)-4-[1-methyl-5-[2-(5,6,7,8-tetrahydro-1,8-naphthyridin-2-yl)ethoxy]pyrazol-3-yl]butanoic Acid Trifluoroacetate]: the IC50 in assay [1] is 7100 nM; in assay [2], 270 nM; in assay [3], 230 nM; in assay [4] it was 14 nM.

`COc1ccc(C#N)cc1C(CC(=O)O)Cc1cc(OCCc2ccc3c(n2)NCCC3)n(C)n1` (centres unmarked) [Example 46, 3-(5-cyano-2-methoxyphenyl)-4-(1-methyl-5-(2-(5,6,7,8-tetrahydro-1,8-naphthyridin-2-yl)ethoxy)-1H-pyrazol-3-yl)butanoic Acid Trifluoroacetate]: the IC50 in assay [1] was 30 nM; in assay [2] it was 9.9 nM; in assay [3], 51 nM; in assay [4] it was 8.1 nM.

For `COc1ccc(C(N)=O)cc1C(CC(=O)O)Cc1cc(OCCc2ccc3c(n2)NCCC3)n(C)n1` (centres unmarked) [Example 47, 3-(5-carbamoyl-2-methoxyphenyl)-4-(1-methyl-5-(2-(5,6,7,8-tetrahydro-1,8-naphthyridin-2-yl)ethoxy)-1H-pyrazol-3-yl)butanoic Acid trifluoroacetate], the half-maximal inhibitory concentration (IC50) in assay [1] was 77 nM; in assay [2], 4.9 nM; in assay [3], 13 nM; in assay [4] it was 4.9 nM.

Consider `COc1ccc(C(=O)O)cc1C(CC(=O)O)Cc1cc(OCCc2ccc3c(n2)NCCC3)n(C)n1` (centres unmarked) [Example 48, 3-(1-carboxy-3-(1-methyl-5-(2-(5,6,7,8-tetrahydro-1,8-naphthyridin-2-yl)ethoxy)-1H-pyrazol-3-yl)propan-2-yl)-4-methoxybenzoic Acid Trifluoroacetate], for which the IC50 is 680 nM in assay [1], 5 nM in assay [2], 230 nM in assay [3] and 19 nM in assay [4].
